The text below walks through data of US20140242551A1, “Oral Care System and Method” (priority 2013, published 2014).

Series [1] has as its system bacteria typically found in the oral cavity. The series can be described thus: standard Minimum Inhibitory Concentration test, other listed bacteria. The settings on record: 18 to 24 hour MIC test. It counts as cell-based. On the procedure:
(§1) FIG. 8 is an exemplary table of comparative laboratory test results illustrating Minimum Inhibitor Concentration of CD at a concentration of 37 parts per million versus Chlorhexidine (CHX) in effectiveness to destroy bacteria and yeast.
(§2) FIG. 8 is an exemplary table listing the comparative results of an 18 to 24 hour standard Minimum Inhibitory Concentration test of a chlorhexidine oral rinse solutions' effectiveness in inhibiting growth of bacteria typically found in the oral cavity, and during dental procedures. More specifically, under controlled test conditions of the University of Iowa College of Dentistry, May 15, 2012, a CD rinse solution was tested against and compared to the chlorhexidine (CHX) as shown.
(§3) It should be noted that even when CHX outperformed CD, or performed as well as CD but at lower concentrations, it did so after continuously acting upon the bacteria for a continuous period of 18 to 24 hours; CD on the other hand while the CD tested had been active for only three minutes, yet remarkably continued to inhibit growth for the subsequent testing time period.

The nature of series [2]: in-vitro test of oral rinses' ability to destroy or reduce microbial VSC toxins. Particulars: 30 second exposure. The text has this:
FIG. 7 is an exemplary table of comparative laboratory text results, and a corresponding graphical representation of the average reduction in […] of each compound listed in the table.
FIG. 7 is an exemplary table of comparative laboratory text results, and a corresponding graphical representation of the average reduction in Volatile Sulfur Compounds of each compound listed in the table. More specifically, the table data and corresponding chart presents the results of controlled laboratory tests conducted on Aug. 11, 2012. The in-vitro tests simulated actual patient-use conditions anticipated in root canal and periodontal procedures. The measurements compare oral rinses based on their ability to destroy or reduce microbial VSC toxins after a 30 second exposure. The tests were completed for a variety of toxins including those produced by Porphyromonas gingivalis, Prevotella intermedia, Tannerella forsythia, Treponema socranskii, and Streptococcus mitis, all of which are routinely present in the oral cavity during periodontal and endodontic procedures.

The subject of series [3] is Listeria, E. Coli, Pseudomonas, Salmonella, Staphylococcus, Streptococcus and others. Particulars: within 30-60 seconds; cited from earlier work.
For series [4], the system named is Aggregatibacter actinomycetemcomitans. The series can be described thus: standard Minimum Inhibitory Concentration test. It counts as cell-based. The settings on record: 18 to 24 hour test; CD at 37 parts per million, active for only three minutes. On the procedure: as §1, §2, §3
The conditions of series [5]: in humans, including rare cases of anaphylactic shock; cited from earlier work.

Structures are written as SMILES.

Take `[O][Cl+][O-]` [CD, chlorine dioxide]: the “growth inhibition compared with CHX (result in words)” value in series [1] is reported as “equally well or slightly less well than CHX”. For the same molecule, in series [2], the “microbial toxins destroyed (reduction in Volatile Sulfur Compounds)” value stood at 100%. In addition, in series [3], the log reduction was 5 log and the reduction is on record as 99.999%. Moreover, the “Minimum Inhibitory Concentration, as dilution of rinse inhibiting growth” value in series [4] is recorded as 1/32.

In the case of `[H]/N=C(\N/C(=N/[H])NCCCCCCNC(=N)NC(=N)Nc1ccc(Cl)cc1)Nc1ccc(Cl)cc1` [Chlorhexidine, reference compound], the “toxin reduction (result in words)” value in series [2] is reported as “statistically nonsignificant drops”. Further, the “Minimum Inhibitory Concentration, as dilution of rinse inhibiting growth” value in series [4] was “⅛”. The “incidence of hypersensitivity reactions” value in series [5] is reported as 2%.
